Test results from US5869602A, “Peptide derivatives” (Novo Nordisk A/S, priority 1995, dated 1999).
Values belong to the compound of their own block, whether it stands above or below them. Non-standard residues stand in square brackets, D forms with d. Residues, ends and D or L forms follow the SMILES beside them. *: point of attachment. Myristoyl = CCCCCCCCCCCCCC(=O)*; Nle = CCCC[C@H](N)C(=O)O; For = O=C*

Legend:
[1] = Determination of lipophilicity relative to human insulin (k'rel) by RP-HPLC; format: physicochemical; conditions: pH 7.3
Method: The lipophilicity of peptides and peptide derivatives relative to human insulin, k'rel, was measured on a LiChrosorb RP18 (5 μm, 4×250 mm) HPLC column by isocratic elution at 40° C. using mixtures of A) 0.1M sodium phosphate buffer, pH 7.3, containing 10% acetonitrile, and B) 50% acetonitrile in water as eluents. The elution was monitored by following the UV absorption of the eluate at 214 nm. Void time, t0, was found by injecting 0.1 mM sodium nitrate. Retention time for human insulin. tinsulin, was adjusted to at least 2t0 by varying the ratio between the A and B solutions. k'rel =(tderivate -t0)/(tinsulin -t0).

rabbits = test: Blood glucose in rabbits pre-treated with Insulin Actrapid, after SC injection; format: in vivo
Method: The resulting solution was sterilized by filtration and transferred to a vial.
Blood was sampled at times: -60, 0, 15, 30, 60, 120, 180 and 240 min, and the glucose concentration determined by the hexokinase method.

[2] = LiChrosorb RP18 HPLC, isocratic elution, 40° C.

Compound: CCCCCCCCCCCCCC(=O)NCCCC[C@H](NC(=O)[C@H](Cc1ccc(O)cc1)NC(=O)[C@H](CCCC)NC(=O)[C@H](Cc1ccccc1)NC(=O)[C@H](CC(C)C)NC(=O)[C@H](CCCC)NC=O)C(=O)O [Example 1, For-Nle-Leu-Phe-Nle-Tyr-Lys(N^ε -tetradecanoyl)-OH] (For-[Nle]LF[Nle]YK(Myristoyl)-OH)
lipophilicity relative to human insulin, k'rel [1, 2]: 8.2×10^3

Compound: CC(C)C[C@H](NC(=O)[C@H](Cc1ccccc1)NC(=O)CNC(=O)[C@@H](C)NC(=O)[C@@H](N)Cc1ccc(O)cc1)C(=O)N[C@@H](CCCCN)C(=O)O [H-Tyr-D-Ala-Gly-Phe-Leu-Lys-OH] (HELM PEPTIDE1{Y.[dA].G.F.L.K}$$$$V2.0)
lipophilicity relative to human insulin, k'rel [1, 2]: 3.0×10^-3

Compound: Lys^30 (Nε-decanoyl) glucagon [Example 6]
blood glucose concentration (rabbits; 0 min (time of SC injection of test substance)): 51 mg glucose/100 ml | blood glucose concentration (rabbits; 15 min after SC injection): 79 mg glucose/100 ml | blood glucose concentration (rabbits; 30 min after SC injection): 93 mg glucose/100 ml | blood glucose concentration (rabbits; 60 min after SC injection): 114 mg glucose/100 ml | blood glucose concentration (rabbits; 120 min after SC injection): 112 mg glucose/100 ml | blood glucose concentration (rabbits; 180 min after SC injection): 116 mg glucose/100 ml | blood glucose concentration (rabbits; 240 min after SC injection): 110 mg glucose/100 ml | blood glucose concentration (rabbits; -60 min (time of 2 IU Insulin Actrapid, before test substance)): 94 mg glucose/100 ml | blood glucose raising effect compared with glucagon (rabbits; SC, conclusion from the table): prolonged action

Results, then the compound that gave them:

lipophilicity relative to human insulin, k'rel [1, 2]: 5.3×10^3
Compound: CCCCCCCCCCCCCC(=O)NCCCC[C@H](NC(=O)[C@H](Cc1ccc(O)cc1)NC(=O)[C@@H](NC(=O)[C@H](Cc1ccccc1)NC(=O)[C@H](Cc1ccccc1)NC(=O)[C@H](Cc1c[nH]cn1)NC(=O)[C@H](Cc1ccccc1)NC(=O)[C@@H]1CCCN1C(=O)[C@H](Cc1c[nH]cn1)NC(=O)[C@@H]1CCCN1)C(C)C)C(=O)O [Example 3] (H-PHPFHFFVYK(Myristoyl)-OH)

lipophilicity relative to human insulin, k'rel [1]: 2.3
Compound: CCCC[C@H](NC=O)C(=O)N[C@@H](CC(C)C)C(=O)N[C@@H](Cc1ccccc1)C(=O)N[C@@H](CCCC)C(=O)N[C@@H](Cc1ccc(O)cc1)C(=O)N[C@@H](CCCCN)C(=O)O [For-Nle-Leu-Phe-Nle-Tyr-Lys-OH] (HELM PEPTIDE1{[O=C[*:2]].[Nle].L.F.[Nle].Y.K}$$$$V2.0)

lipophilicity relative to human insulin, k'rel [1, 2]: 2.3×10^2
Compound: H-PHPFHFFVYK-OH
